Reference: patent US7879872B2, “Compositions comprising multiple bioactive agents, and methods of using the same” (Affinium Pharmaceuticals, Inc., priority 2003, dated 2011)
Marks after values point to notes of the source that are not given here.

Assays:
S. pneumoniae 22425 = assay: Combination Time-kill kinetics; format: cell-based; conditions: Gatifloxacin alone, 4 × MIC (2 ug/ml)
Description: (§1) As used herein, “synergy” refers to the in vitro effect of administration of a combination of an antibacterial agent such as a Fab I inhibiter, and antiinfective agent such that (1) the fractional inhibitory concentration (FIC) is less than or equal to 0.5 in an FIC assay described herein; or (2) there is at least a 100-fold (2 log10) increase in killing at 24 hours for the combination as compared with the bioactive agent alone in a time kill curve assay as described herein. An FIC of ≦0.5 is evidence of synergy. An additive response has an FIC value of >0.5 and less than or equal to 1, while an indifferent response has an FIC value of >1 and ≦2. An additive effect may still indicate that the combination of bioactive agent and cationic peptide are therapeutically useful.

[1] = tested on: S. pneumoniae 22425, a penicillin and macrolide resistant clinical isolate; assay: Combination time-kill studies; format: cell-based; conditions: for effect of compound G on the bactericidal activity (kill kinetics, kill extent) of the antibiotic: combination with compound G at 0.03 μg/ml and 1 μg/ml, S. pneumoniae
Description: Combination time-kill studies were performed as follows. Bacterial inocula were prepared as for MIC determination according to CLSI guidelines. Log phase cells (˜10^6 CFU/ml) were inoculated into 24 well plates and incubated with the indicated concentrations of compound G and commercial antibiotics for 24 hours at 35° C. At indicated time points samples were removed for determination of viable CFU counts. Results are plotted as log CFU/ml vs. time.

S. aureus strains = assay: Checkerboard combination studies of compound G and commercial antibiotics (FIG. 6); format: cell-based; conditions: in combination with compound G, S. aureus strains tested
Description: Checkerboard experiments were performed and analyzed according to standard procedures as outlined below.

S. pneumoniae 22257 = assay: Combination Time-kill kinetics; format: cell-based; conditions: antibiotic alone at 4 × MIC (Azithromycin 0.12 ug/ml, Cefuroxime 8 ug/ml)
Description: as §1

E. faecalis A6221420 = assay: Combination Time-kill kinetics; format: cell-based; conditions: Meropenem alone, 4 × MIC (16 ug/ml)
Description: as §1

COc1c(N2CCNC(C)C2)c(F)cc2c(=O)c(C(=O)O)cn(C3CC3)c12 (stereo not drawn) [Gatifloxacin, reference compound]
logCFU/ml at Time (hr): 0 (S. pneumoniae 22425): 5.18 logCFU/ml
logCFU/ml at Time (hr): 2 (S. pneumoniae 22425): 4.26 logCFU/ml
logCFU/ml at Time (hr): 6 (S. pneumoniae 22425): 2.77 logCFU/ml
logCFU/ml at Time (hr): 24 (S. pneumoniae 22425): ≤ 1.70* logCFU/ml
ΔlogCFU/ml (24-0 hr) (S. pneumoniae 22425): −3.48 logCFU/ml
bactericidal activity, log reduction in CFU at 24 hours ([1]; antibiotic alone, S. pneumoniae 22425, 24 hours, FIG. 8): −3.5 log
effect of compound G on the bactericidal activity (kill kinetics, kill extent) of the antibiotic [1]: no effect

Gentamicin
combination effect with compound G (synergistic / additive / antagonism) (S. aureus strains): synergistic effect

CC[C@H]1OC(=O)[C@H](C)[C@@H](O[C@H]2C[C@@](C)(OC)[C@@H](O)[C@H](C)O2)[C@H](C)[C@@H](O[C@@H]2O[C@H](C)C[C@H](N(C)C)[C@H]2O)[C@](C)(O)C[C@@H](C)CN(C)[C@H](C)[C@@H](O)[C@]1(C)O [Azithromycin, reference compound]
logCFU/ml at Time (hr): 0 (S. pneumoniae 22257): 6.35 logCFU/ml
logCFU/ml at Time (hr): 3 (S. pneumoniae 22257): 4.53 logCFU/ml
logCFU/ml at Time (hr): 6 (S. pneumoniae 22257): 3.39 logCFU/ml
logCFU/ml at Time (hr): 8 (S. pneumoniae 22257): ≤ 1.70* logCFU/ml
logCFU/ml at Time (hr): 24 (S. pneumoniae 22257): ≤ 1.70* logCFU/ml
ΔlogCFU/ml (24-0 hr) (S. pneumoniae 22257): −4.65 logCFU/ml
effect of compound G on the bactericidal activity (kill kinetics, kill extent) of the antibiotic [1]: no effect

CN(Cc1cc2ccccc2n1C)C(=O)/C=C/c1ccc(NC(=O)CCC(=O)N2CCOCC2)nc1 [Example 216, (E)-N-(5-{2-[Methyl-(1-methyl-1H-indol-2-ylmethyl)carbamoyl]vinyl}pyridin-2-yl)-4-morpholin-4-yl-4-oxo-butyramide]
melting point: 206 to 209 °C (dec.)

CO/N=C(\C(=O)N[C@@H]1C(=O)N2C(C(=O)O)=C(COC(N)=O)CS[C@H]12)c1ccco1 [Cefuroxime, reference compound]
logCFU/ml at Time (hr): 0 (S. pneumoniae 22257): 6.39 logCFU/ml
logCFU/ml at Time (hr): 3 (S. pneumoniae 22257): 1.92 logCFU/ml
logCFU/ml at Time (hr): 6 (S. pneumoniae 22257): 1.70 logCFU/ml
logCFU/ml at Time (hr): 8 (S. pneumoniae 22257): ≤ 1.70* logCFU/ml
logCFU/ml at Time (hr): 24 (S. pneumoniae 22257): ≤ 1.70* logCFU/ml
ΔlogCFU/ml (24-0 hr) (S. pneumoniae 22257): −4.69 logCFU/ml
effect of compound G on the bactericidal activity (kill kinetics, kill extent) of the antibiotic [1]: no effect

CC(=O)NC[C@H]1CN(c2ccc(N3CCOCC3)c(F)c2)C(=O)O1 [linezolid]
combination effect with compound G (synergistic / additive / antagonism) (S. aureus strains): synergistic effect

CN(Cc1cc2ccccc2n1C)C(=O)/C=C/c1ccc(NC(=O)CCC(N)=O)nc1 [Example 214, (E)-N-(5-{2-[Methyl-(1-methyl-1H-indol-2-ylmethyl)carbamoyl]vinyl}pyridin-2-yl)succinamide]
melting point: 225 to 227 °C

CN1CCN(C(=O)CCC(=O)Nc2ccc(/C=C/C(=O)N(C)Cc3cc4ccccc4n3C)cn2)CC1 [Example 215, (E)-N-(5-{2-[Methyl-(1-methyl-1H-indol-2-Ylmethyl)carbamoyl]vinyl}pyridin-2-yl)-4-(4-methyl-piperazin-1-yl)-4-oxo-butyramide]
melting point: 145 to 147 °C (dec.)

CN(Cc1cc2ccccc2n1C)C(=O)/C=C/c1ccc(N2C(=O)CCC2=O)nc1 [Example 213, (E)-3-[6-(2,5-Dioxo-pyrrolidin-1-yl)pyridin-3-yl]-N-methyl-N-(1-methyl-1H-indol-2-ylmethyl)acrylamide]
melting point: 185 to 187 °C

C[C@@H](O)[C@H]1C(=O)N2C(C(=O)O)=C(S[C@@H]3CN[C@H](C(=O)N(C)C)C3)[C@H](C)[C@H]12 [Meropenem, reference compound]
logCFU/ml at Time (hr): 0 (E. faecalis A6221420): 5.12 logCFU/ml
logCFU/ml at Time (hr): 2 (E. faecalis A6221420): 4.31 logCFU/ml
logCFU/ml at Time (hr): 4 (E. faecalis A6221420): 3.41 logCFU/ml
logCFU/ml at Time (hr): 8 (E. faecalis A6221420): 2.67 logCFU/ml
logCFU/ml at Time (hr): 24 (E. faecalis A6221420): ≤ 1.70* logCFU/ml
ΔlogCFU/ml (24-0 hr) (E. faecalis A6221420): −3.43 logCFU/ml
